Counter-ions that a name gives are not always drawn. Like-named read-outs stand apart in the source and are kept apart here. One block for each molecule: values may come before it.
Experiments:
[1] = target: Isdop2 (Ixodes scapularis, UniProt A0ACM8DGL0); experiment: cell-based; conditions: for inhibition at 10 µM: read-out: % Inhibition (of response to dopamine), Isdop2 screen
[2] = target: AaDOP2 (Aedes aegypti, UniProt H6D5H2); experiment: HTRF cAMP accumulation concentration response assay (Cisbio Dynamic 2); assay type: cell-based; conditions: in vitro Concentration Response Curve assay, n = 2, relative to control antagonist Amitriptyline; read-out: Avg IC50
[3] = tested on: Ae. aegypti L3 larvae; experiment: whole plant or invertebrate; conditions: Aedes aegypti
[4] = 10 μM compound, footnote 3 mM dopamine
[5] = 0.5 h, read-out: percent mortality 0.5 hr, 400 uM, L3 larvae, value for this scoring time
[6] = 1 h, read-out: percent mortality 1 hr, 400 uM, L3 larvae, per scoring time
[7] = 2 h, read-out: percent mortality 2 hr, 400 uM, L3 larvae, per scoring time
[8] = 3 h, read-out: percent mortality 3 hr, 400 uM, L3 larvae, per scoring time
[9] = 4 h, read-out: percent mortality 4 hr, 400 uM, L3 larvae, per scoring time
[10] = 24 h, read-out: Toxicity to Aedes aegypti larvae (mortality) 24 hours, 400 μM, L3 larvae, three independent experiments
[11] = 24 h, read-out: percent mortality 24 hr, 400 uM, L3 larvae, per scoring time
[12] = 48 h, read-out: Toxicity to Aedes aegypti larvae (mortality) 48 hours, 400 μM, L3 larvae, three independent experiments
[13] = 48 h, read-out: percent mortality 48 hr, 400 uM, L3 larvae, per scoring time
[14] = 72 h, read-out: Cumulative % Mortality (72 hrs), 400 uM, L3 larvae
[15] = 72 h, read-out: Toxicity to Aedes aegypti larvae (mortality) 72 hours, 400 μM, L3 larvae, three independent experiments
[16] = 72 h, read-out: percent mortality 72 hr, 400 uM, L3 larvae, per scoring time
[17] = […], read-out: percent mortality […], 400 uM, L3 larvae, per scoring time

Isdop2, sequence (A0ACM8DGL0 entry or part of it): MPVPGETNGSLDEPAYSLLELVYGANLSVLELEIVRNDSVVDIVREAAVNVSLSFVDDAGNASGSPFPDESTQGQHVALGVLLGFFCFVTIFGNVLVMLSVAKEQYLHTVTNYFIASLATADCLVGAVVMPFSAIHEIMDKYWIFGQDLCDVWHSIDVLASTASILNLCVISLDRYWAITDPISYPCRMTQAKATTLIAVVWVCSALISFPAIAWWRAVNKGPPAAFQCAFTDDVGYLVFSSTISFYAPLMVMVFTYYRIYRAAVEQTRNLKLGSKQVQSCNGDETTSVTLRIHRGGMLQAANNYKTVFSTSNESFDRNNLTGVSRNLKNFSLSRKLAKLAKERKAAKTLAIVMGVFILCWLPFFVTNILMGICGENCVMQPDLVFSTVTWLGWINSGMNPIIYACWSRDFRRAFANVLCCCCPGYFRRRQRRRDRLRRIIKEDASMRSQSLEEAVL
AaDOP2, sequence (H6D5H2 entry or part of it): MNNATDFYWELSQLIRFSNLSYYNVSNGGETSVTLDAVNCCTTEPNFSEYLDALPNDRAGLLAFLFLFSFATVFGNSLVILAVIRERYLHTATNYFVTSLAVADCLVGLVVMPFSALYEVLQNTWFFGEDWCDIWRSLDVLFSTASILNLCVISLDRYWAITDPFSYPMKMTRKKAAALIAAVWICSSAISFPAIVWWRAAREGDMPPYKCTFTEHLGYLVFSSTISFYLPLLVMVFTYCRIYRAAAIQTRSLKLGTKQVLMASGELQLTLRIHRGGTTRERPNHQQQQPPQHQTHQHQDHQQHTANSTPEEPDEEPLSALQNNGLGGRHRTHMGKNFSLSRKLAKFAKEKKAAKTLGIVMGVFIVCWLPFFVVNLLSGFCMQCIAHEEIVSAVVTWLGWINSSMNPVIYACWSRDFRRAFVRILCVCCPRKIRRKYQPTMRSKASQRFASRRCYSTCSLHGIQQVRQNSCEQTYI

Molecule: CN1CCN(CCCN2c3ccccc3Sc3ccc(C(F)(F)F)cc32)CC1 [Trifluoperazine, 10-[3-(4-methylpiperazin-1-yl)propyl]-2-(trifluoromethyl)-10H-phenothiazine]
inhibition at 10 µM [1]: 76%

IC50 [2]: 4.51 µM
Molecule: CCC(CC)c1nc(Nc2ccc(C)c(Cl)c2)c2ccccc2n1 [ST029892, (3-chloro-4-methylphenyl)[2-(ethylpropyl)quinazolin-4-yl]amine]

IC50 [2]: 6.87 µM
Molecule: COc1ccc(Nc2nc(N3CCN(C)CC3)nc3c2cnn3-c2ccccc2)cc1 [Compound G932-0529, N-(4-methoxyphenyl)-6-(4-methylpiperazin-1-yl)-1-phenyl-1H-pyrazolo[3,4-d]pyrimidin-4-amine]

IC50 [2]: 5.5 µM
Molecule: Cc1cc(Nc2ccccc2)nc(Nc2ccc(NC(=O)CC(C)C)cc2)n1 [Compound G869-0101, 3-methyl-N-(4-((4-methyl-6-(phenylamino)pyrimidin-2-yl)amino)phenyl)butanamide]

Molecule: c1ccc(CCNc2nc(N3CCNCC3)nc3ccccc23)cc1 [ST095663, (phenylethyl)(2-piperazinylquinazolin-4-yl)amine]
IC50 [2]: 4.84 µM

IC50 [2]: 3.49 µM
Molecule: Cc1ccccc1Nc1nc(N2CCN(C)CC2)nc2c1cnn2-c1ccccc1 [Compound G932-0129, 6-(4-methylpiperazin-1-yl)-1-phenyl-N-(o-tolyl)-1H-pyrazolo[3,4-d]pyrimidin-4-amine]

IC50 [2]: 4.55 µM
Molecule: Cc1ccc(Nc2nc(N3CCN(C)CC3)nc3c2cnn3-c2ccccc2)cc1 [Compound G932-0029, 6-(4-methylpiperazin-1-yl)-1-phenyl-N-(p-tolyl)-1H-pyrazolo[3,4-d]pyrimidin-4-amine]

Molecule: OC[C@H]1O[C@@H](n2cnc3ccccc32)[C@H](O)[C@@H]1O [D-ribofuranosylbenzimidazole]
% Inhibition (of response to dopamine), Isdop2 screen [1, 4]: 82%

IC50 [2]: 0.318 µM
Molecule: O=C(NCC1CCCCN1)c1cc(OCC(F)(F)F)ccc1OCC(F)(F)F (stereo not shown) [Flecainide Acetate, N-(2-Piperidylmethyl)-2,5-bis-(2,2,2-trifluoroethoxy)benzamide acetate salt]

IC50 [2]: 0.704 µM
Molecule: CCCN1C[C@H](CSC)C[C@@H]2c3cccc4[nH]cc(c34)C[C@H]21 [Pergolide Mesylate, 8β-[(Methylthio)methyl]-6-propylergoline methanesulfonate salt]

Molecule: Cc1ccc(O)c(N=Nc2ccccc2)n1 [SIB 1757]
% Inhibition (of response to dopamine), Isdop2 screen [1, 4]: 100%

Molecule: COc1ccccc1N1CCN(CCCCN2C(=O)c3ccccc3C2=O)CC1 [NAN-190 hydrobromide]
inhibition at 10 µM [1]: 69%

Molecule: O=C(c1ccc(F)cc1)C1CCN(CCn2c(=O)[nH]c3ccccc3c2=O)CC1 [Ketanserin]
mortality at 400 µM [3, 5]: 0%
mortality at 400 µM [3, 6]: 0%
mortality at 400 µM [3, 7]: 0%
mortality at 400 µM [3, 8]: 0%
mortality at 400 µM [3, 9]: 0%
mortality at 400 µM [3, 10]: 0%
mortality at 400 µM [3, 11]: 0%
mortality at 400 µM [3, 12]: 0%
mortality at 400 µM [3, 13]: 0%
mortality at 400 µM [3, 14]: 0%
mortality at 400 µM [3, 15]: 0%
mortality at 400 µM [3, 16]: 0%
mortality at 400 µM [3, 17]: 0%

Molecule: CC(=O)c1c(O)c(C)c(O)c(Cc2c(O)c3c(c(C(=O)/C=C/c4ccccc4)c2O)OC(C)(C)C=C3)c1O [Rottlerin]
inhibition at 10 µM [1]: 97%

Molecule: Br.CN1CCc2cc(O)c(O)cc2C(c2ccccc2)C1 (stereo not shown) [SKF 75670 hydrobromide]
% Inhibition (of response to dopamine), Isdop2 screen [1]: 68%

Molecule: OCCN1CCN(CCCN2c3ccccc3Sc3ccc(C(F)(F)F)cc32)CC1 [Fluphenazine, 2-[4-[3-[2-(trifluoromethyl)-10H-phenothiazin-10-yl]propyl]piperazin-1-yl]ethanol]
inhibition at 10 µM [1]: 79%

Molecule: CN1CCN(CC(=O)N2c3ccccc3C(=O)Nc3cccnc32)CC1 [Pirenzepine]
mortality at 400 µM [3, 5]: 0%
mortality at 400 µM [3, 6]: 0%
mortality at 400 µM [3, 7]: 0%
mortality at 400 µM [3, 8]: 0%
mortality at 400 µM [3, 9]: 0%
mortality at 400 µM [3, 10]: 0%
mortality at 400 µM [3, 11]: 0%
mortality at 400 µM [3, 12]: 0%
mortality at 400 µM [3, 13]: 0%
mortality at 400 µM [3, 14]: 0%
mortality at 400 µM [3, 15]: 0%
mortality at 400 µM [3, 16]: 0%
mortality at 400 µM [3, 17]: 0%

Molecule: NC(=Nc1ccccc1)NC(=O)c1nc(Cl)c(N)nc1N [Phenamil methanesulfonate]
inhibition at 10 µM [1]: 72%

Molecule: CSc1ccc2c(c1)N(CCC1CCCCN1C)c1ccccc1S2 (racemic) [Thioridazine, 10-{2-[(RS)-1-Methylpiperidin-2-yl]ethyl}-2-methylsulfanylphenothiazine]
inhibition at 10 µM [1]: 85%

Molecule: C[n+]1cc2c3c(ccc2c2ccc4cc5c(cc4c21)OCO5)OCO3 [Sanguinarine chloride]
inhibition at 10 µM [1]: 100%

Molecule: O=c1c(-c2ccc(O)cc2)coc2cc(O)cc(O)c12 [Genistein]
inhibition at 10 µM [1]: 71%

Molecule: CC[C@H](CO)Nc1nc(NCc2ccccc2)c2ncn(C(C)C)c2n1 [Roscovitine]
inhibition at 10 µM [1]: 91%

Molecule: Clc1ccc2c(c1)C(N1CCNCC1)=Nc1ccccc1O2 [Amoxapine, 2-Chloro-11-(piperazin-1-yl)dibenzo[b,f][1,4]oxazepine]
inhibition at 10 µM [1]: 92%

Molecule: C[C@@H]1O[C@@H](O[C@H]2C[C@@H](O)[C@]3(CO)[C@H]4[C@H](O)C[C@]5(C)[C@@H](C6=CC(=O)OC6)CC[C@]5(O)[C@@H]4CC[C@]3(O)C2)[C@H](O)[C@H](O)[C@H]1O [Ouabain]
inhibition at 10 µM [1]: 86%

Molecule: (±)-Butaclamol hydrochloride
% Inhibition (of response to dopamine), Isdop2 screen [1]: 86%

From patent publication US20140350081A1, “INSECT G-COUPLED RECEPTORS USEFUL AS TARGETS FOR INSECTICIDES AND COMPOUNDS AND REAGENTS IDENTIFIED USING THE SAME” (priority 2011, published 2014)
